# Values of other authors, collected in patent US20240238442A1, “LIPOSOMES DISPLAYING A GLYCAN LIGAND FOR CD33 AND THEIR USE IN THE TREATMENT OF ALZHEIMER'S DISEASE” (THE GOVERNORS OF THE UNIVERSITY OF ALBERTA, priority 2021, published 2024).
# Molecular target: CD33 (Homo sapiens, UniProt P20138)
# Conditions: free ligand
# Chain of CD33 (P20138 18-364): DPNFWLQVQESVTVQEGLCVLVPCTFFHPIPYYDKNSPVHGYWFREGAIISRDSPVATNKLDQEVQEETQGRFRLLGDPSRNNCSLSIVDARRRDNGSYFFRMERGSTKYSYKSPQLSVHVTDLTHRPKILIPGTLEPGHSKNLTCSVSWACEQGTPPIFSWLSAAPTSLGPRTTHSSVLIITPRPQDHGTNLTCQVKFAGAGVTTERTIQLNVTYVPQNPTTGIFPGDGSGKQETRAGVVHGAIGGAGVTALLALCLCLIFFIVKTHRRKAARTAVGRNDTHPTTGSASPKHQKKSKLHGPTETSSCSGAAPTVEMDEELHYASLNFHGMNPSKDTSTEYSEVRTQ
structure (smiles),measurement,value
Cc1cc(C(=O)NC[C@@H](O)CC2O[C@@](OCC3OC(O[C@@H]4C(CO)O[C@@H](OCCN)C(O)C4O)C(O)C(O)[C@H]3O)(C(=O)O)CC(O)[C@H]2C(O)NC(=O)Cn2cc(C3CCCCC3)nn2)cc(C)c1O (stereo partly shown) [CD33L],Kd,87 µM
